Tests used:
OPM-2 = assay: cells; assay type: functional, cell-based; conditions: Homo sapiens;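 further: growth of OPM-2 cells measured with a viability assay, IC50 for suppression of proliferation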
Description: SANGER: Inhibition of human OPM-2 cell growth in a cell viability assay.

BOKU = assay: cells; assay type: functional, cell-based; conditions: Homo sapiens;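 further: growth inhibition of the human BOKU cell line, read out by a cell viability assay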
Description: SANGER: Inhibition of human BOKU cell growth in a cell viability assay.

TE-15 = assay: cells; assay type: functional, cell-based; conditions: Homo sapiens;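 further: cell viability readout of growth inhibition in TE-15 cells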
Description: SANGER: Inhibition of human TE-15 cell growth in a cell viability assay.

EVSA-T = assay: cells; assay type: functional, cell-based; conditions: Homo sapiens;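 further: growth inhibition of EVSA-T cells, read out with a cell viability assay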
Description: SANGER: Inhibition of human EVSA-T cell growth in a cell viability assay.

CAL-148 = assay: cells; assay type: functional, cell-based; conditions: Homo sapiens
Description: SANGER: Inhibition of human CAL-148 cell growth in a cell viability assay.

SCLC-21H = assay: cells; assay type: functional, cell-based; conditions: Homo sapiens;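 further: growth inhibition of cultured human SCLC-21H cells, read out with a cell viability assay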
Description: SANGER: Inhibition of human SCLC-21H cell growth in a cell viability assay.

IST-SL2 = assay: cells; assay type: functional, cell-based; conditions: Homo sapiens;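 further: growth inhibition of human IST-SL2 cells, read out by a cell viability assay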
Description: SANGER: Inhibition of human IST-SL2 cell growth in a cell viability assay.

TGW = assay: cells; assay type: functional, cell-based; conditions: Homo sapiens;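 further: growth inhibition of human TGW cells, read out with a cell viability assay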
Description: SANGER: Inhibition of human TGW cell growth in a cell viability assay.

RPMI 8402 = assay: SANGER: Inhibition of human RPMI-8402 cell growth in a cell viability assay.; assay type: functional, cell-based
EHEB = assay: cells; assay type: functional, cell-based; conditions: Homo sapiens;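 further: growth inhibition of human EHEB cells, read out with a cell viability assay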
Description: SANGER: Inhibition of human EHEB cell growth in a cell viability assay.

EB2 = assay: cells; assay type: functional, cell-based; conditions: Homo sapiens;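 further: growth inhibition of EB2 cells, read out with a cell viability assay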
Description: SANGER: Inhibition of human EB2 cell growth in a cell viability assay.

LOUCY = assay: cells; assay type: functional, cell-based; conditions: Homo sapiens;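 further: growth inhibition of human LOUCY cells, read out with a cell viability assay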
Description: SANGER: Inhibition of human LOUCY cell growth in a cell viability assay.

NB14 = assay: cells; assay type: functional, cell-based; conditions: Homo sapiens;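 further: growth inhibition of NB14 cells measured with a cell viability assay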
Description: SANGER: Inhibition of human NB14 cell growth in a cell viability assay.

NCI-H322M = assay: cells; assay type: functional, cell-based; conditions: Homo sapiens;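 further: cell viability assay measuring inhibition of growth of human NCI-H322M cells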
Description: SANGER: Inhibition of human NCI-H322M cell growth in a cell viability assay.

MONO-MAC-6 = assay: cells; assay type: functional, cell-based; conditions: Homo sapiens;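 further: cell viability assay measuring growth inhibition of human MONO-MAC-6 cells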
Description: SANGER: Inhibition of human MONO-MAC-6 cell growth in a cell viability assay.

LB647-SCLC = assay: cells; assay type: functional, cell-based; conditions: Homo sapiens;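 further: cell growth inhibition, read out by a viability assay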
Description: SANGER: Inhibition of human LB647-SCLC cell growth in a cell viability assay.

CAL-120 = assay: cells; assay type: functional, cell-based; conditions: Homo sapiens;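 further: cell growth inhibition, read out as cell viability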
Description: SANGER: Inhibition of human CAL-120 cell growth in a cell viability assay.

CAMA-1 = assay: cells; assay type: functional, cell-based; conditions: Homo sapiens;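 further: growth inhibition of CAMA-1 cells, read out with a cell viability assay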
Description: SANGER: Inhibition of human CAMA-1 cell growth in a cell viability assay.

DBTRG-05MG = assay: cells; assay type: functional, cell-based; conditions: Homo sapiens;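 further: cell viability assay measuring growth inhibition of human DBTRG-05MG cells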
Description: SANGER: Inhibition of human DBTRG-05MG cell growth in a cell viability assay.

CAL-12T = assay: cells; assay type: functional, cell-based, Homo sapiens; conditions: Homo sapiens, CAL-12T;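 further: growth inhibition of human CAL-12T cells, read out with a cell viability assay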
Description: SANGER: Inhibition of human CAL-12T cell growth in a cell viability assay.

SW1783 = assay: cells; assay type: functional, cell-based; conditions: Homo sapiens
Description: SANGER: Inhibition of human SW1783 cell growth in a cell viability assay.

SNU-387 = assay: cells; assay type: functional, cell-based; conditions: Homo sapiens
Description: SANGER: Inhibition of human SNU-387 cell growth in a cell viability assay.

RPMI-2650 = assay: cells; assay type: functional, cell-based; conditions: Homo sapiens
Description: SANGER: Inhibition of human RPMI-2650 cell growth in a cell viability assay.

U2OS = assay: cells; assay type: functional, cell-based, U-2-OS; conditions: Homo sapiens;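 further: growth inhibition of human U-2-OS cells, determined with a cell viability assay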
Description: SANGER: Inhibition of human U-2-OS cell growth in a cell viability assay.

SW-620 = assay: cells; assay type: functional, cell-based; conditions: Homo sapiens;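 further: growth inhibition of human SW-620 cells, measured by a cell viability assay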
Description: SANGER: Inhibition of human SW620 cell growth in a cell viability assay.

OVCAR-8 = assay: cells; assay type: functional, cell-based; conditions: Homo sapiens;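 further: growth inhibition of human OVCAR-8 cells, read out by a cell viability assay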
Description: SANGER: Inhibition of human OVCAR-8 cell growth in a cell viability assay.

LCLC-103H cell line = assay: cells; assay type: functional, cell-based; conditions: Homo sapiens
Description: SANGER: Inhibition of human LCLC-103H cell growth in a cell viability assay.

LK-2 = assay: cells; assay type: functional, cell-based; conditions: Homo sapiens;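 further: growth inhibition of LK-2 cells, read out with a viability assay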
Description: SANGER: Inhibition of human LK-2 cell growth in a cell viability assay.

JEG-3 = assay: cells; assay type: functional, cell-based; conditions: Homo sapiens;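 further: growth inhibition of human JEG-3 cells, read out with a cell viability assay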
Description: SANGER: Inhibition of human JEG-3 cell growth in a cell viability assay.

CAL-85-1 = assay: cells; assay type: functional, cell-based; conditions: Homo sapiens;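 further: growth inhibition of human CAL-85-1 cells, read out with a cell viability assay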
Description: SANGER: Inhibition of human CAL-85-1 cell growth in a cell viability assay.

MKN-45 = assay: cells; assay type: functional, cell-based; conditions: Homo sapiens;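 further: growth inhibition of human MKN-45 cells, measured with a cell viability assay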
Description: SANGER: Inhibition of human MKN45 cell growth in a cell viability assay.

SW626 = assay: cells; assay type: functional, cell-based; conditions: Homo sapiens;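 further: growth inhibition of SW626 cells, measured with a cell viability assay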
Description: SANGER: Inhibition of human SW626 cell growth in a cell viability assay.

SK-MEL-24 = assay: cells; assay type: functional, cell-based; conditions: Homo sapiens;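 further: growth inhibition read out by a cell viability assay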
Description: SANGER: Inhibition of human SK-MEL-24 cell growth in a cell viability assay.

ASPC1 = assay: cells; assay type: functional, cell-based; conditions: Homo sapiens;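 further: growth inhibition of AsPC-1 cells, read out with a cell viability assay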
Description: SANGER: Inhibition of human AsPC-1 cell growth in a cell viability assay.

SK-MEL3 = assay: cells; assay type: functional, cell-based, SK-MEL-3; conditions: Homo sapiens;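 further: growth inhibition of human SK-MEL-3 cells, read out with a cell viability assay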
Description: SANGER: Inhibition of human SK-MEL-3 cell growth in a cell viability assay.

NCI-H2009 = assay: cells; assay type: functional, cell-based; conditions: Homo sapiens;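 further: cell viability assay measuring inhibition of NCI-H2009 cell growth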
Description: SANGER: Inhibition of human NCI-H2009 cell growth in a cell viability assay.

RD = assay: cells; assay type: functional, cell-based; conditions: Homo sapiens
Description: SANGER: Inhibition of human RD cell growth in a cell viability assay.

SBC-5 = assay: cells; assay type: functional, cell-based; conditions: Homo sapiens;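 further: cell viability assay read-out, IC50 is the concentration that inhibits growth of the cells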
Description: SANGER: Inhibition of human SBC-5 cell growth in a cell viability assay.

KYSE-270 = assay: cells; assay type: functional, cell-based; conditions: Homo sapiens;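 further: cell growth inhibition measured with a viability assay in the human KYSE-270 line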
Description: SANGER: Inhibition of human KYSE-270 cell growth in a cell viability assay.

CAL-72 = assay: cells; assay type: functional, cell-based; conditions: Homo sapiens;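 further: cell viability assay measuring inhibition of proliferation in the CAL-72 cell line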
Description: SANGER: Inhibition of human CAL-72 cell growth in a cell viability assay.

TCC-SUP = assay: cells; assay type: functional, cell-based; conditions: Homo sapiens;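 further: growth inhibition of TCC-SUP cells, read out with a cell viability assay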
Description: SANGER: Inhibition of human TCCSUP cell growth in a cell viability assay.

HCC1419 = assay: cells; assay type: functional, cell-based; conditions: Homo sapiens;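 further: growth inhibition of human HCC1419 cells, read out as cell viability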
Description: SANGER: Inhibition of human HCC1419 cell growth in a cell viability assay.

CHL-1 = assay: cells; assay type: functional, cell-based; conditions: Homo sapiens;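 further: cell growth inhibition, read out with a cell viability assay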
Description: SANGER: Inhibition of human CHL-1 cell growth in a cell viability assay.

IGROV-1 = assay: cells; assay type: functional, cell-based; conditions: Homo sapiens;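 further: reduction of IGROV-1 cell growth, read out with a viability assay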
Description: SANGER: Inhibition of human IGROV-1 cell growth in a cell viability assay.

Hs-578T = assay: cells; assay type: functional, cell-based; conditions: Homo sapiens
Description: SANGER: Inhibition of human Hs-578-T cell growth in a cell viability assay.

SNU-449 = assay: cells; assay type: functional, cell-based; conditions: Homo sapiens
Description: SANGER: Inhibition of human SNU-449 cell growth in a cell viability assay.

HPAF-II = assay: cells; assay type: functional, cell-based; conditions: Homo sapiens;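 further: growth inhibition of HPAF-II cells, read out with a cell viability assay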
Description: SANGER: Inhibition of human HPAF-II cell growth in a cell viability assay.

Huh-7 = assay: cells; assay type: functional, cell-based; conditions: Homo sapiens;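 further: HuH-7 cell growth inhibition, read out with a cell viability assay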
Description: SANGER: Inhibition of human HuH-7 cell growth in a cell viability assay.

HT-1376 = assay: cells; assay type: functional, cell-based; conditions: Homo sapiens
Description: SANGER: Inhibition of human HT-1376 cell growth in a cell viability assay.

HMV-2 cell line = assay: cells; assay type: functional, cell-based; conditions: Homo sapiens;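 further: growth inhibition of HMV-II cells, read out with a cell viability assay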
Description: SANGER: Inhibition of human HMV-II cell growth in a cell viability assay.

MG-63 = assay: cells; assay type: functional, cell-based; conditions: Homo sapiens;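 further: growth inhibition of human MG-63 cells, read out with a cell viability assay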
Description: SANGER: Inhibition of human MG-63 cell growth in a cell viability assay.

SW756 = assay: cells; assay type: functional, cell-based; conditions: Homo sapiens;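 further: growth inhibition of human SW756 cells, read out with a cell viability assay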
Description: SANGER: Inhibition of human SW756 cell growth in a cell viability assay.

VMRC-RCZ = assay: cells; assay type: functional, cell-based; conditions: Homo sapiens
Description: SANGER: Inhibition of human VMRC-RCZ cell growth in a cell viability assay.

MHH-ES-1 = assay: cells; assay type: functional, cell-based; conditions: Homo sapiens
Description: SANGER: Inhibition of human MHH-ES-1 cell growth in a cell viability assay.

NCI-H2170 = assay: cells; assay type: functional, cell-based; conditions: Homo sapiens;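 further: cell viability assay measuring growth inhibition of human NCI-H2170 cancer cells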
Description: SANGER: Inhibition of human NCI-H2170 cell growth in a cell viability assay.

A-431 = assay: cells; assay type: functional, cell-based; conditions: Homo sapiens;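 further: growth inhibition of A-431 cells, determined with a cell viability read-out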
Description: SANGER: Inhibition of human A431 cell growth in a cell viability assay.

SAS = assay: cells; assay type: functional, cell-based; conditions: Homo sapiens;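 further: growth inhibition of SAS cells, read out with a cell viability assay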
Description: SANGER: Inhibition of human SAS cell growth in a cell viability assay.

23132-87 = assay: cells; assay type: functional, cell-based; conditions: Homo sapiens
Description: SANGER: Inhibition of human 23132-87 cell growth in a cell viability assay.

MDA-MB-175-VII = assay: cells; assay type: functional, cell-based; conditions: Homo sapiens
UO-31 = assay: cells; assay type: functional, cell-based; conditions: Homo sapiens
Description: SANGER: Inhibition of human U031 cell growth in a cell viability assay.

KYSE-450 = assay: cells; assay type: functional, cell-based; conditions: Homo sapiens;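 further: cell growth inhibition measured by a viability assay in human KYSE-450 cells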
Description: SANGER: Inhibition of human KYSE-450 cell growth in a cell viability assay.

COR-L105 = assay: cells; assay type: functional, cell-based; conditions: Homo sapiens
Description: SANGER: Inhibition of human COR-L105 cell growth in a cell viability assay.

NCI-H2052 = assay: cells; assay type: functional, cell-based; conditions: Homo sapiens;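 further: growth inhibition of NCI-H2052 cells, read out with a cell viability assay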
Description: SANGER: Inhibition of human NCI-H2052 cell growth in a cell viability assay.

HT-3 = assay: cells; assay type: functional, cell-based; conditions: Homo sapiens;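 further: growth inhibition measured with a cell viability readout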
Description: SANGER: Inhibition of human HT-3 cell growth in a cell viability assay.

CCNc1cc(N[C@H]2CC[C@@H](O)CC2)nc(Nc2ccc3c(ccn3Cc3ccccc3)c2)n1
IC50 (OPM-2): > 5.12 µM | IC50 (BOKU): > 5.12 µM | IC50 (TE-15): 5.12 µM | IC50 (EVSA-T): > 5.12 µM | IC50 (CAL-148): > 5.12 µM | IC50 (SCLC-21H): > 5.12 µM | IC50 (IST-SL2): 4.56 µM | IC50 (TGW): > 5.12 µM | IC50 (RPMI 8402): 3.48 µM | IC50 (EHEB): > 5.12 µM | IC50 (EB2): > 5.12 µM | IC50 (LOUCY): > 5.12 µM | IC50 (NB14): > 5.12 µM | IC50 (NCI-H322M): > 5.12 µM | IC50 (MONO-MAC-6): > 5.12 µM | IC50 (LB647-SCLC): > 5.12 µM

N#C/C(=C1/Nc2ccccc2S1)c1ccnc(NCCc2cccnc2)n1
IC50 (CAL-120): > 8 µM | IC50 (CAMA-1): > 8 µM | IC50 (DBTRG-05MG): > 8 µM | IC50 (CAL-12T): 1.3 µM | IC50 (SW1783): 6.17 µM | IC50 (SNU-387): 3.8 µM | IC50 (OPM-2): > 8 µM | IC50 (BOKU): > 8 µM | IC50 (RPMI-2650): 2.58 µM | IC50 (U2OS): > 8 µM | IC50 (SW-620): > 8 µM | IC50 (TE-15): 2.22 µM | IC50 (EVSA-T): > 8 µM | IC50 (OVCAR-8): > 8 µM | IC50 (LCLC-103H cell line): > 8 µM | IC50 (CAL-148): > 8 µM | IC50 (LK-2): 6.53 µM | IC50 (JEG-3): > 8 µM | IC50 (CAL-85-1): 1.5 µM | IC50 (MKN-45): > 8 µM | IC50 (SW626): 5.87 µM | IC50 (SCLC-21H): > 8 µM | IC50 (IST-SL2): > 8 µM | IC50 (SK-MEL-24): > 8 µM | IC50 (ASPC1): > 8 µM | IC50 (TGW): > 8 µM | IC50 (SK-MEL3): > 8 µM | IC50 (NCI-H2009): > 8 µM | IC50 (RD): > 8 µM | IC50 (RPMI 8402): > 8 µM | IC50 (SBC-5): 6.89 µM | IC50 (KYSE-270): 5.97 µM | IC50 (CAL-72): > 8 µM | IC50 (TCC-SUP): > 8 µM | IC50 (EHEB): > 8 µM | IC50 (EB2): > 8 µM | IC50 (HCC1419): > 8 µM | IC50 (CHL-1): 6.1 µM | IC50 (IGROV-1): 0.603 µM | IC50 (Hs-578T): > 8 µM | IC50 (SNU-449): 4.87 µM | IC50 (HPAF-II): > 8 µM | IC50 (Huh-7): > 8 µM | IC50 (LOUCY): > 8 µM | IC50 (HT-1376): 7.32 µM | IC50 (NCI-H322M): > 8 µM | IC50 (MONO-MAC-6): > 8 µM | IC50 (HMV-2 cell line): 0.793 µM | IC50 (MG-63): 3.29 µM | IC50 (SW756): > 8 µM | IC50 (LB647-SCLC): > 8 µM | IC50 (VMRC-RCZ): 7.77 µM | IC50 (MHH-ES-1): > 8 µM | IC50 (NCI-H2170): > 8 µM | IC50 (A-431): > 8 µM | IC50 (SAS): > 8 µM | IC50 (23132-87): 7.1 µM | IC50 (MDA-MB-175-VII): > 8 µM | IC50 (UO-31): 7.2 µM | IC50 (KYSE-450): 1.14 µM | IC50 (COR-L105): 1.77 µM | IC50 (NCI-H2052): > 8 µM | IC50 (HT-3): > 8 µM

COc1cc(C)c(Sc2cnc(NC(=O)c3ccc(CNC(C)C(C)(C)C)cc3)s2)cc1C(=O)N1CCN(C(C)=O)CC1 (stereo not given)
IC50 (OPM-2): 8.91 µM | IC50 (BOKU): > 10.2 µM | IC50 (TE-15): > 10.2 µM | IC50 (EVSA-T): > 10.2 µM | IC50 (CAL-148): > 10.2 µM | IC50 (SCLC-21H): > 10.2 µM | IC50 (IST-SL2): > 10.2 µM | IC50 (TGW): > 10.2 µM | IC50 (RPMI 8402): > 10.2 µM | IC50 (EHEB): > 10.2 µM | IC50 (EB2): > 10.2 µM | IC50 (LOUCY): > 10.2 µM | IC50 (NB14): > 10.2 µM | IC50 (NCI-H322M): > 10.2 µM | IC50 (MONO-MAC-6): 6.67 µM | IC50 (LB647-SCLC): > 10.2 µM

Cc1ccc(NC(=O)c2cccc(C(C)(C)C#N)c2)cc1Nc1ccc2ncn(C)c(=O)c2c1
IC50 (OPM-2): 3.03 µM | IC50 (TE-15): > 4 µM | IC50 (EVSA-T): > 4 µM | IC50 (CAL-148): > 4 µM | IC50 (SCLC-21H): > 4 µM | IC50 (IST-SL2): > 4 µM | IC50 (TGW): > 4 µM | IC50 (RPMI 8402): > 4 µM | IC50 (EHEB): > 4 µM | IC50 (EB2): > 4 µM | IC50 (LOUCY): > 4 µM | IC50 (NB14): 0.493 µM | IC50 (NCI-H322M): > 4 µM | IC50 (MONO-MAC-6): > 4 µM | IC50 (LB647-SCLC): > 4 µM

From ChEMBL document CHEMBL1201861, “Genomics of Drug Sensitity in Cancer screening data, Wellcome Trust Sanger Institute”
